From patent publication US8592581B2, “Trisubstituted purine derivatives” (Cyclacel Limited, priority 2007, dated 2013)

Tests used:
MESSA = experiment: Alamar blue cytotoxicity assay MESSA; assay type: cell-based; settings: Homo sapiens, MES-SA; 72 hours; read-out: cellular cytotoxicity IC50 MESSA
Experimental: (§1) In order to determine the cellular potency of the compounds, the cytotoxicity of each compound was determined against a range of cell lines. Standard cytotoxicity methods were performed as follows: cells were seeded in 96-well plates appropriately for their doubling time (2-5000 cells per well) in RPMI or DMEM media containing 10% FCS and incubated overnight at 37° C., 5% CO2. The media was removed and 100 μl fresh media containing increasing concentrations of appropriate compound was added and the cells incubated for 72 hours at 37° C., 5% CO2. A 10% stock of alamar blue (Roche, Lewes, United Kingdom) was prepared in medium and 100 μl added to the cells which were incubated for 2 hours. Absorbance was measured on the Wallac Victor 2 1420 multi-label counter at 544-595 nm.

CYP2C8 = CYP2C8 (Homo sapiens (Human), UniProt P10632); experiment: Cytochrome P450 substrate identification (Bactosomes) CYP2C8; assay type: in vitro ADME; settings: pH 7.4, 5 μM test compound, up to 45 min, read-out: half life in the presence of CYP2C8
Experimental: cDNA expressed human CYP450 enzyme preparations co-expressed with human NADPH cytochrome P450 reductase (Bactosomes™) were supplied by Cypex Ltd. Bactosomes™ (final P450 concentration CYP1A2 100 pmol/mL, CYP2C8 50 pmol/mL, CYP2C9 25 pmol/mL, CYP2C19 100 pmol/mL, CYP2D6 50 pmol/mL and CYP3A4 25 pmol/mL), 0.1M phosphate buffer pH7.4 and test compound (final substrate concentration=5 μM; final DMSO concentration=0.25%) were pre-incubated at 37° C. prior to the addition of NADPH (final concentration=1 mM) to initiate the reaction. Incubations were also performed using control bactosomes (no P450 enzymes present) to reveal any non-enzymatic degradation. The final incubation volume was 25 μL. Compounds known to be metabolised specifically by each CYP450 isoform were used as control compounds.
Each compound was incubated singly for 0, 5, 15, 30 and 45 min with each CYP isoform. The reactions were stopped by the addition of 50 μL methanol containing internal standard at the appropriate time points. The incubation plates were centrifuged at 2500 rpm for 20 min at 4° C. to precipitate the protein. Following protein precipitation, the sample supernatants were combined in cassettes of up to four compounds and analysed using generic LC-MS/MS conditions.
The In peak area ratio (which has been corrected for any loss in the incubations with the control bactosomes) was plotted against time and the gradient of the line determined.
The elimination rate constant (k)=(−gradient)

Colo205 = experiment: Alamar blue cytotoxicity assay Colo205; assay type: cell-based; settings: Homo sapiens, COLO 205; 72 hours; read-out: cellular cytotoxicity IC50 Colo205
Experimental: as §1

CDK 2 and CDK9 = experiment: In-vitro kinase potency screen against CDK 2 and CDK9 (statements in words); assay type: biochemical; settings: Table 7 (not given): [A1], [A2], [A3] and [1]
Experimental: To evaluate the in-vitro kinase potency of the compounds, they were screened against CDK 2 and CDK9. Kinase assays were performed in 96-well plates using recombinant CDK/cyclins generated at Cyclacel. Ltd Dundee, UK. CDK2 and CDK9 assays were performed in a total volume of 25 μl in assay buffer (25 mM b-glycerophosphate, 20 mM MOPS, 5 mM EGTA, 1 mM DTT and 1 mM NaVO3, pH 7.4), into which were added 2-4 μg of active enzyme with appropriate substrates (purified histone H1 for CDK2/cyclin E, and CDK2/cyclin A, biotinyl-Ahx-(YSPTSPS)4 for CDK9/cyclin T1). The reaction was initiated by addition of Mg/ATP mix (15 mM MgCl2+100 μM ATP with 30-50 kBq per well of [—^32P]-ATP) and mixtures incubated for 15 min (CDK2/cyclin E), 30 min (CDK2/cyclin A) or 45 min (CDK9/cyclin T1) as required, at 30° C. […] After washing 3 times with 75 mM orthophosphoric acid, plates were dried, scintillant added and incorporated radioactivity measured in a scintillation counter (TopCount, Packard Instruments, Pangbourne, Berks, UK). […]
To evaluate the in-vitro kinase potency of the compounds, they were screened against CDK 2 and CDK9. […] After washing 3 times with 75 mM orthophosphoric acid, plates were dried, scintillant added and incorporated radioactivity measured in a scintillation counter (TopCount, Packard Instruments, Pangbourne, Berks, UK). […]

CYP2C8, sequence (P10632 whole entry): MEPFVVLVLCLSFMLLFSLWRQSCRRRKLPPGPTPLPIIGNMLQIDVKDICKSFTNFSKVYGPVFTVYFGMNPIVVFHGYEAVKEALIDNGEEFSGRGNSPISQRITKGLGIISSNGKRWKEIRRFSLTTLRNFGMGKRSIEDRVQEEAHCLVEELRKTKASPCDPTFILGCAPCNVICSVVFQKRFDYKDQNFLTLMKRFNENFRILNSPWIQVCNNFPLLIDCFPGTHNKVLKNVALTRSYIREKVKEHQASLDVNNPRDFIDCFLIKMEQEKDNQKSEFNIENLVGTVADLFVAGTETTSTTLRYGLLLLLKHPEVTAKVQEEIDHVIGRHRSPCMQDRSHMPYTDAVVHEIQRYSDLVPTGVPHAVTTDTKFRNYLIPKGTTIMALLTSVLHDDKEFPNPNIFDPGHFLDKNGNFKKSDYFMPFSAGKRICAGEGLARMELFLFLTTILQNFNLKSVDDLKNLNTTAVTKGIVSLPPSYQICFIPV

`CC[C@H](Nc1nc(NCc2cnc(C)cc2C)c2ncn(C(C)C)c2n1)[C@@H](C)O` [Compound [1]] was tested, and the IC50 (MESSA) was 0.16 µM, the half-life at 5 μM (CYP2C8) was over 45 min and the IC50 (Colo205) was 0.31 µM. For the same molecule, the “kinase inhibitor potency ranking (in words)” value (CDK 2 and CDK9) was “most potent kinase inhibitors”.
